According to patent US10245267B2, “Biaryl amide compounds as kinase inhibitors” (NOVARTIS AG, priority 2013, dated 2019):
Like-named read-outs stand apart in the source and are kept apart here.

Assays:
[1] = target: C-Raf FL (full-length C-Raf protein) (Homo sapiens (Human), UniProt P04049, Y340E/Y341E); format: biochemical; conditions: read-out: c-Raf FL IC-50
Source text: In Vitro Raf Activity Determination
Sf9 cells co-expressing both proteins were lysed and subjected to immobilized nickel chromatography and eluted with Imidazole. A second column (StrepII binding column) was used and eluted with desthiobiotin. Protein Tags were removed using Prescission enzyme and the protein was further purified using a flowthrough step to remove tags.
C-Raf FL refers to the full-length C-Raf protein.
Full length MEK1 with an inactivating K97R ATP binding site mutation is utilized as a RAF substrate. The MEK1 cDNA was subcloned with an N-terminal (his)6 tag into a vector for E. Coli expression. The MEK1 substrate was purified from E. Coli lysate by nickel affinity chromatography followed by anion exchange. The final MEK1 preparation was biotinylated (Pierce EZ-Link Sulfo-NHS-LC-Biotin) and concentrated.
(§1) Assay buffer: 50 mM Tris, pH 7.5, 15 mM MgCl2, 0.01% Bovine Serum Albumin (BSA), 1 mM dithiothreitol (DTT) Stop buffer: 60 mM ethylenediaminetetraacetic acid (EDTA), 0.01% Tween® 20
biotinylated Mek, kinase dead
(§2) 384 well low volume assay plates (White Greiner® plates)
(§3) biotinylated Mek, Kinase dead approximately 10 nM
(§4) Pre-incubation time with compounds 60 minutes at room temperature
(§5) Reaction time 1 or 3 hours at room temperature
(§6) The plate was incubated for 60 minutes at room temperature. […] The additions were carried out under dark conditions to protect the detection beads from light. A lid was placed on top of the plate and incubated for 1 hour at room temperature, then the luminescence was read on a PerkinElmer Envision instrument.

b-Raf(V600E) = b-Raf(V600E) (Homo sapiens (Human), UniProt P15056, V600E); conditions: read-out: b-Raf IC-50; Table 2; Alpha Screen, ATP 10 μM, 3 hours reaction
Procedure: In Vitro Raf Activity Determination
Full length MEK1 with an inactivating K97R ATP binding site mutation is utilized as a RAF substrate.
as §1
biotinylated Mek, kinase dead
as §2, §3, §4, §5, §6

[2] = Table 2, Alpha Screen, ATP 1 uM, 1 hour reaction

Chain of b-Raf(V600E) (P15056 whole entry V600E): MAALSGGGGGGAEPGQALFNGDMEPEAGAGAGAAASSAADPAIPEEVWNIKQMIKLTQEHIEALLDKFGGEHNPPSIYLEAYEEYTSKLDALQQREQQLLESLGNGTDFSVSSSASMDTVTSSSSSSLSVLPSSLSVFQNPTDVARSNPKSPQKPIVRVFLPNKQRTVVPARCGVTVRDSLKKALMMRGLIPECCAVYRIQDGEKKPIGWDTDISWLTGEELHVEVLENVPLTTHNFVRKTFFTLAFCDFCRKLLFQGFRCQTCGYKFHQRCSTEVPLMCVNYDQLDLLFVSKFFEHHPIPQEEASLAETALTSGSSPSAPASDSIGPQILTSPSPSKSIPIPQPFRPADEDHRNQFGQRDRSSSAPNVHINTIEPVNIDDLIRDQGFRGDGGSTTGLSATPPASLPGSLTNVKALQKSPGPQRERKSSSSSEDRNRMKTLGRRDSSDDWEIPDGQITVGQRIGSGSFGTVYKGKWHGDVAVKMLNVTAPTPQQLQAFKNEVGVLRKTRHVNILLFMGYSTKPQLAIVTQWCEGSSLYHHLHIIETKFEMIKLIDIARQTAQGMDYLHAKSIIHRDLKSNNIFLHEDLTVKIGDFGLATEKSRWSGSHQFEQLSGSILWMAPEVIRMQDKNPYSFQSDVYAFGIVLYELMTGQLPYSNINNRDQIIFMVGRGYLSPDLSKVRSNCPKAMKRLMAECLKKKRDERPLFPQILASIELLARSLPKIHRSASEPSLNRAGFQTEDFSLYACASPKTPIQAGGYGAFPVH
Chain of C-Raf FL (full-length C-Raf protein) (P04049 whole entry Y340E/Y341E): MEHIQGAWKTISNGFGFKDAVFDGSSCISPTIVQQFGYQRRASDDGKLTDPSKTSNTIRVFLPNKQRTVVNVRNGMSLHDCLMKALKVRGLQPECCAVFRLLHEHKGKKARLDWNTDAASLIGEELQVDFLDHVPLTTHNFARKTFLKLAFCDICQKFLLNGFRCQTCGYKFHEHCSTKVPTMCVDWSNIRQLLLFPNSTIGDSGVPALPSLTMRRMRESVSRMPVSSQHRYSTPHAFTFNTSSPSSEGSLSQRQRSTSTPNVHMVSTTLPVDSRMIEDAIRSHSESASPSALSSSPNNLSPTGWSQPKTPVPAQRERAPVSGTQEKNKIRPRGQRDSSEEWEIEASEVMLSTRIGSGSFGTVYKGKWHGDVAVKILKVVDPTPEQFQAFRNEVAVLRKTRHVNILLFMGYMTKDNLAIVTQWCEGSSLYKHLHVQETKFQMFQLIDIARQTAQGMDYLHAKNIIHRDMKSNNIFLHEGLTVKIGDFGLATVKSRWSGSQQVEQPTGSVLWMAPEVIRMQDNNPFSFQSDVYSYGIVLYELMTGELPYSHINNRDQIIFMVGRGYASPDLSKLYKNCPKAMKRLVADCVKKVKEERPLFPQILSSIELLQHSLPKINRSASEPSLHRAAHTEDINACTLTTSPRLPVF
Chain of C-Raf FL (full-length C-Raf protein) (P63104 whole entry partner): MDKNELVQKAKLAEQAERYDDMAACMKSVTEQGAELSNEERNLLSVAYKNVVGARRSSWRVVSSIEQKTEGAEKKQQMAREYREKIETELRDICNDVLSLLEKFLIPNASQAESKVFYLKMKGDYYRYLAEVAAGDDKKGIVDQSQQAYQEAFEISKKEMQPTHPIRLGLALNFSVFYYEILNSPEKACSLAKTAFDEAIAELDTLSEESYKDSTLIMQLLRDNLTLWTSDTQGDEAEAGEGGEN

SMILES	IC50 [1] [nM]	IC50 (b-Raf(V600E)) [nM]	IC50 [1, 2] [nM]
Cc1ncc(NC(=O)c2cccc(C(F)(F)F)c2)cc1-c1cc(N2CCOCC2)nc(NC[C@@H](C)O)n1 [Example 743, (R)—N-(5-(2-((2-hydroxypropyl)amino)-6-morpholinopyrimidin-4-yl)-6-methylpyridin-3-yl)-3-(trifluoromethyl) benzamide]	0.8	–	–
CCNc1nc(-c2cc(C(=O)Nc3cccc(C(F)(F)F)c3)ccc2C)cc(N2CCOCC2)n1 [Example 710, 3-(2-(ethylamino)-6-morpholinopyrimidin-4-yl)-4-methyl-N-(3-(trifluoromethyl)phenyl) benzamide]	–	4	1.6
CCNc1nc(-c2cc(NC(=O)c3ccnc(C(F)(F)F)c3)ccc2C)cc(N2CCOCC2)n1 [Example 719, N-(3-(2-(ethylamino)-6-morpholinopyrimidin-4-yl)-4-methylphenyl)-2-(trifluoromethyl) isonicotinamide]	–	2	–
Cc1ccc(NC(=O)c2cccc(C(F)(F)F)c2)cc1-c1cc(N2CCOCC2)c(OCCO)nn1 [Example 590, N-(3-(6-(2-hydroxyethoxy)-5-morpholinopyridazin-3-yl)-4-methylphenyl)-3-(trifluoromethyl)benzamide]	–	0.9	0.2
